Laboratory results published in patent publication US20240132525A1, “BORON […], CO[…], METHODS AND USES THEREOF” (priority 2022, published 2024).
Where two headings read alike, the source gives them in different places.

Columns and labels:
[1] = Dog LM (liver microsome) assay; type: in vitro ADME; conditions: predicted clearance as percent of liver blood flow
Outline: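 Pooled Beagle liver microsomes (1 mg/ml protein), compound 1 μM, Tris pH 7.6 with 5 mM MgCl2, 37 °C, started with 1 mM NADPH; parent loss by LC-MS/MS over several time points.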

JAK1 = JAK1 (Homo sapiens (Human), UniProt P23458); test: Biochemical kinase assay (33P-ATP filter-binding), JAK1
Chain of JAK1 (P23458 whole entry, species assumed): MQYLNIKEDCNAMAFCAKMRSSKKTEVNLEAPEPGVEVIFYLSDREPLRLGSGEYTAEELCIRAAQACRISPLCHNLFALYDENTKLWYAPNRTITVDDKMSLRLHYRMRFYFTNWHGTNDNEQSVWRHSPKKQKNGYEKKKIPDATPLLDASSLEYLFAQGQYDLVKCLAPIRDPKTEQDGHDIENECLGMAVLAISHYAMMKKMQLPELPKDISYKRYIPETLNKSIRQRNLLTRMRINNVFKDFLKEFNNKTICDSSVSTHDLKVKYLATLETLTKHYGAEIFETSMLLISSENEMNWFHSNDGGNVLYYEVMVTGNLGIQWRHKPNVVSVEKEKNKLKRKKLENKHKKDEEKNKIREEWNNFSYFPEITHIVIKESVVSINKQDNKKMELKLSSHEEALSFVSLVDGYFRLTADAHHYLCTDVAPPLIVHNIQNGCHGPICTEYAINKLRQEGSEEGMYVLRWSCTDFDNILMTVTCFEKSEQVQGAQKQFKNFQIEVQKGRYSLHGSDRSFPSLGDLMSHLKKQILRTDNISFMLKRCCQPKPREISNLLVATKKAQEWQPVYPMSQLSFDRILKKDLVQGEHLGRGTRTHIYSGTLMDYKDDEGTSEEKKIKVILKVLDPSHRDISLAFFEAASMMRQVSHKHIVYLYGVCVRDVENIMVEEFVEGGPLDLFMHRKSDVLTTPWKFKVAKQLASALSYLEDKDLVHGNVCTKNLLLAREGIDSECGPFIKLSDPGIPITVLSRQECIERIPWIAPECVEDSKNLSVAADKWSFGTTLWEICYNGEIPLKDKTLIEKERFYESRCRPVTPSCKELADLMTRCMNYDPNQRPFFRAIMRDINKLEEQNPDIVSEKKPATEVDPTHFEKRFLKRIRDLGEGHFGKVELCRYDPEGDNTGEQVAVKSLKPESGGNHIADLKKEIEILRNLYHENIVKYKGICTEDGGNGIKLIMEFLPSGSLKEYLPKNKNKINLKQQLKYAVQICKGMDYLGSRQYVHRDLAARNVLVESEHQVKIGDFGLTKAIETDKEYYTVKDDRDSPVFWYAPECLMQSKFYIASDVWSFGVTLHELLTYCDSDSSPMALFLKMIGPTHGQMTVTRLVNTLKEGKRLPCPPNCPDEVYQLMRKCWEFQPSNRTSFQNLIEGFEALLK
Description: (§1) Biochemical Kinase Assay Protocol (JAK)
(§2) Reaction Procedure: • 1. […] Detected kinase activity by filter-binding method.

GM-CSF/pSTAT5 = test: Cytokine function assay GM-CSF/pSTAT5 in lysed whole blood cells; type: cell-based; conditions: read-out: IC50 GM-CSF
Description: (§3) Cytokine Function Assay Protocols for IL-4/pSTAT6 and GM-CSF/pSTAT5
GM-CSF/pSTAT5: • Whole blood from a healthy donor was lysed to remove red blood cells. Cells were plated onto a 96 well plate. Compound was added and incubated for 1 hour (at 37° C.). After 1 hour, cells were stimulated with GM-CSF for 15 minutes. Cells were fixed and stained with anti-pSTAT5 antibody. After staining, cells were read on a Beckman-Coulter CytoFLEX.

JAK2 = JAK2 (Homo sapiens (Human), UniProt O60674); test: Biochemical kinase assay (33P-ATP filter-binding), JAK2
Chain of JAK2 (O60674 whole entry, species assumed): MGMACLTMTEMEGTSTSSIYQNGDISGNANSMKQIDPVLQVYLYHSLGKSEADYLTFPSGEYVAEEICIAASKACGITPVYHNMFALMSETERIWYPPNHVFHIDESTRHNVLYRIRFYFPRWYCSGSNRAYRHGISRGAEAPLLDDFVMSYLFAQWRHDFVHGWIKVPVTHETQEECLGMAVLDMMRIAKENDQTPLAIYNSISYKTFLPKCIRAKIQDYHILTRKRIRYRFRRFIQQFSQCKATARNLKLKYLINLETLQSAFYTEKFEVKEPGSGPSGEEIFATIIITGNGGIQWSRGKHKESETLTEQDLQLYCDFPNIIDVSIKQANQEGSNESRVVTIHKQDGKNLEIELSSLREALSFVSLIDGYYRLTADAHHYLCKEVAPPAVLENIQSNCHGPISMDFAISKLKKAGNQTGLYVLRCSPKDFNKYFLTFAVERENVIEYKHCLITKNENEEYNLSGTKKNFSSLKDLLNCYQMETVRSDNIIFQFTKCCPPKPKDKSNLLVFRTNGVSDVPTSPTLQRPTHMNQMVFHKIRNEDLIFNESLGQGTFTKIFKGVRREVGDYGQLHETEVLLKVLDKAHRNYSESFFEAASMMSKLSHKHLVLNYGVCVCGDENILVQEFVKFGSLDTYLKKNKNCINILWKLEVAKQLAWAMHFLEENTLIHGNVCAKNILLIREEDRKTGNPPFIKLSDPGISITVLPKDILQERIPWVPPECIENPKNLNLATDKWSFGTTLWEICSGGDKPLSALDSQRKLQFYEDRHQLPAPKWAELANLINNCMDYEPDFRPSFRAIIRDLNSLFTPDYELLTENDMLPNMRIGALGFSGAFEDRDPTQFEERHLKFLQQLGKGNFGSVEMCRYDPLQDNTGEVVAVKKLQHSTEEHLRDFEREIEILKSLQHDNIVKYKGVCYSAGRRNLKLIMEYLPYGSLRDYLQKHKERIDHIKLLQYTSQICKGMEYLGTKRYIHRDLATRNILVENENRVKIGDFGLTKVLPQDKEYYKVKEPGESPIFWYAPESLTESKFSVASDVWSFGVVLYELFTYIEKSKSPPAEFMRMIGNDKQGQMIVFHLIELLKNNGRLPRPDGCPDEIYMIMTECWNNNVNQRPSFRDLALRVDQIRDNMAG
Description: as §1, §2

IL-31 = test: Cytokine function assay for IL-31 in DH82 cells; type: cell-based, canine; conditions: Canis lupus familiaris, DH82; Table 3a; read-out: IC50 IL-31
Description: Cytokine Function Assay Protocol for IL-31
The protocol for the cytokine function assay for IL-31 is set forth below: • 1. […] After 24 hr, wash with 37° C. pre-warmed PBS (100 uL/well). • 3. Add serum-free MEM, 90 uL per well, 2 hr, 37° C. • 4. Add 10 uL 10×IL-31 (40, 10, 2.5 ug/mL) in duplicate, 5 min, 37° C. • 5. Remove medium, add 60 uL lysis buffer per well. Agitate on a plate shaker (˜350 rpm) for 10 min at RT. • 6. […] Add 6 uL Acceptor Mix, cover with aluminum foil, quickly spin at 1000 rpm, shake at 120 rpm for 2 min, then incubate at RT for 1 hr. • 8. Add 6 uL Donor Mix, cover with aluminum foil, quickly spin at 1000 rpm, shake at 120 rpm for 2 min, then incubate at RT for 1 hr. • 9. Measure the fluorescence using EnVision™ plate reader.

IL-4/pSTAT6 = test: Cytokine function assay IL-4/pSTAT6 in PBMC; type: cell-based
Description: as §3
IL-4/pSTAT6: • PBMC from a healthy donor was plated onto a 96 w plate. Compound was added and incubated for 1 hour (at 37° C.). After 1 hour, cells were stimulated with IL-4 for 15 minutes. Cells were fixed and stained with anti-pSTAT6 antibody. After staining, cells were read on a Beckman-Coulter CytoFLEX.

PDE4B = PDE4B (Homo sapiens (Human), UniProt Q07343); test: PDE4B inhibition; type: biochemical; conditions: Table 3b, comparator compounds
Chain of PDE4B (Q07343 whole entry, species assumed): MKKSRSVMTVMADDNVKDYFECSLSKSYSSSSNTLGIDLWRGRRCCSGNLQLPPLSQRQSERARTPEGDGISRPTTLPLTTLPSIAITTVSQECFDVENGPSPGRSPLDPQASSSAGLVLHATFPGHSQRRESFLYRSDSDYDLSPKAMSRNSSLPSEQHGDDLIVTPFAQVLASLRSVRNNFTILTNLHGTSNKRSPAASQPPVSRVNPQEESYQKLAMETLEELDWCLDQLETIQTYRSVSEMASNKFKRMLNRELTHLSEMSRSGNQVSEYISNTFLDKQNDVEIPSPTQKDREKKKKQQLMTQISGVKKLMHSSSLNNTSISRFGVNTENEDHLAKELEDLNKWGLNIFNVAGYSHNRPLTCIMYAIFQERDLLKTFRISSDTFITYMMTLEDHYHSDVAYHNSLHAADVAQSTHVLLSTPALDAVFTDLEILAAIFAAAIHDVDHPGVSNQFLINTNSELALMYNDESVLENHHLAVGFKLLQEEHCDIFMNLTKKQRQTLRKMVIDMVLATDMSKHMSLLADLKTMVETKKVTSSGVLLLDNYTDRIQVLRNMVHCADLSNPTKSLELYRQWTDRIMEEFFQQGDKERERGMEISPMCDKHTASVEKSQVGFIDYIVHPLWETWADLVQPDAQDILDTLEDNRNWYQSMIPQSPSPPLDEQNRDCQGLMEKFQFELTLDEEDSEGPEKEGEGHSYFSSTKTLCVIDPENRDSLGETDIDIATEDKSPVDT

[2] = Table 3a, 1 μM, 1 mg/ml microsomal protein
[3] = PBMC, read-out: IC50 IL-4, Table 3a
[4] = Table 3b, comparator compounds, read-out: IC50 JAK1
[5] = Table 3b, comparator compounds, read-out: IC50 JAK2
[6] = Table 3b, comparator compounds, read-out: IC50 IL-4

| Compound | Dog LM QH [1, 2] [%] | IC50 (JAK1; Table 3a, read-out: IC50 JAK1) [nM] | IC50 (GM-CSF/pSTAT5; Whole blood cell) [µM] | IC50 (JAK2; Table 3a, read-out: IC50 JAK2) [nM] | IC50 (IL-31) [nM] | IC50 (IL-4/pSTAT6; [3]) [nM] | IC50 (JAK1; IC50 JAK1, Table 3a) [nM] | IC50 (JAK2; IC50 JAK2, Table 3a) [nM] | Dog LM QH ([1]; Table 3b, comparator compounds) [%] | IC50 (JAK1; [4]) [nM] | IC50 (GM-CSF/pSTAT5; Table 3b, comparator compounds) [µM] | Inhibition PDE4B @ 1 μM (PDE4B) [%] | IC50 (JAK2; [5]) [nM] | IC50 (IL-4/pSTAT6; [6]) [nM] | IC50 (PDE4B) [nM] |
| --- | --- | --- | --- | --- | --- | --- | --- | --- | --- | --- | --- | --- | --- | --- | --- |
| Cc1cnc(Nc2cc(Cl)c3c(c2)COB3O)nc1NC1CCCC[C@@H]1C#N (single isomer, unassigned) [Example 010a, (trans)-2-[[2-[(7-chloro-1-hydroxy-3H-2,1-benzoxaborol-5-yl)amino]-5-methyl-pyrimidin-4-yl]amino]cyclohexane-1-carbonitrile] | <19.9 | 0.6 | 0.469 | 4 | 12.7 | 37.9 | – | – | – | – | – | – | – | – | – |
| Cc1cnc(Nc2cc3c(c(C(F)(F)F)c2)B(O)OC3)nc1N[C@H]1CCCC[C@@H]1C#N (single isomer, unassigned) [Example 011a, (trans)-2-((2-((1-hydroxy-7-(trifluoromethyl)-1,3-dihydrobenzo[c][1,2]oxaborol-5-yl)amino)-5-methylpyrimidin-4-yl)amino)cyclohexane-1-carbonitrile] | <19.9 | 0.4 | 1.49 | 11.7 | 107 | 151 | – | – | – | – | – | – | – | – | – |
| Cc1cc(Nc2ncc(Cl)c(N[C@H]3COCC[C@@H]3C#N)n2)cc2c1B(O)OC2 (single isomer, unassigned) [Example 041a, (trans)-3-[[5-chloro-2-[(1-hydroxy-7-methyl-3H-2,1-benzoxaborol-5-yl)amino]pyrimidin-4-yl]amino]tetrahydropyran-4-carbonitrile] | <19.9 | – | > 10 | – | 40 | 47 | 0.8 | 3.1 | – | – | – | – | – | – | – |
| N#C[C@H]1CCOC[C@@H]1Nc1nc(Nc2cc3c(c(C(F)(F)F)c2)B(O)OC3)ncc1Cl (single isomer, unassigned) [Example 042a, (trans)-3-((5-chloro-2-((1-hydroxy-7-(trifluoromethyl)-1,3-dihydrobenzo[c][1,2]oxaborol-5-yl)amino)pyrimidin-4-yl)amino)tetrahydro-2H-pyran-4-carbonitrile] | <19.9 | 0.4 | 2.97 | 7.3 | 9.7 | 148 | – | – | – | – | – | – | – | – | – |
| Cc1cnc(Nc2cc(C)c3c(c2)COB3O)nc1NC1CCCC1 [Example C008] | – | – | – | – | – | – | – | – | 54.3 | 2.3 | > 10 | 37 | 59.3 | 973 | – |
| Cc1cnc(Nc2ccc3c(c2)C(C)(C)OB3O)nc1NC1CCCC1 [Example C009] | – | – | – | – | – | – | – | – | 83.4 | 2.4 | 4.22 | 40 | 83.9 | 218 | 761 |
| Cc1cnc(Nc2ccc3c(c2)COB3O)nc1NC1CCCCC1 [Example C011] | – | – | – | – | – | – | – | – | 83.5 | 3.2 | 7.7 | 13 | 32.9 | 2490 | 242 |
| OB1OCc2cc(Nc3ncc(Cl)c(NC4CCCC4)n3)ccc21 [Example C014] | – | – | – | – | – | – | – | – | 78.5 | 3.3 | 5.35 | – | 179 | 782 | 52.7 |
| Cc1cc(Nc2ncc(Cl)c(NC3CCCC3)n2)cc2c1B(O)OC2 [Example C016] | – | – | – | – | – | – | – | – | 54.5 | 2.1 | 0.927 | 30 | 663 | 688 | – |
